Values quoted from earlier work, collected in patent US20020037899A1, “Compositions containing an inhibitor of dihydrofolate reductase and a folate” (priority 2000, published 2002).

Key:
[1] = test system: rheumatoid arthritis patients receiving methotrexate; conditions: for reduction in mucosal and gastrointestinal side effect: folic acid or folinic acid administered to rheumatoid arthritis patients receiving methotrexate
[2] = not given; remark: listed apart in the source

Row | SMILES | reduction in mucosal and gastrointestinal side effect [1] [%] | effect on disease symptoms such as painful joints ([1]; high dosages of folinic acid, rheumatoid arthritis patients receiving methotrexate) | solubility in water [mg per ml] | stable to heating at temperatures [2]
1 | Nc1nc(=O)c2c([nH]1)NCC(CNc1ccc(C(=O)N[C@@H](CCC(=O)O)C(=O)O)cc1)N2C=O (mixture of isomers) [folinic acid] | 79 | increase in disease symptoms | – | –
2 | Nc1nc2ncc(CNc3ccc(C(=O)N[C@@H](CCC(=O)O)C(=O)O)cc3)nc2c(=O)[nH]1 [folic acid] | 79 | – | 1.6 | below 200 °C
